Our source for the inhibition of growth values is ChEMBL document CHEMBL1157124, “Synthesis and anticancer evaluation of alpha-lipoic acid derivatives” (Bioorg Med Chem Lett, 2010).

Common to all, as to type: functional
The subject of experiment [1] is NCI-H460. Put plainly: Cytotoxicity against human NCI-H460 cells assessed as growth inhibition at 1 ug/ml after 24 hrs by MTT assay. As to conditions: NCI-H460, 24 h, read-out: GI. Background: Formazan colour is commonly taken as a measure of viable cells.
Experiment [2] is described as follows: Cytotoxicity against human HO8910 cells assessed as growth inhibition at 1 ug/ml after 24 hrs by MTT assay. The following applies: HO-8910, 24 h, read-out: GI.
Experiment [3] relates to Bel-7402. Put plainly: Cytotoxicity against human Bel7402 cells assessed as growth inhibition at 1 ug/ml after 24 hrs by MTT assay. As to conditions: Bel-7402, 24 h, read-out: GI.
The test system of experiment [4] is KB. The experiment can be described thus: Cytotoxicity against human KB cells assessed as growth inhibition at 0.1 ug/ml after 24 hrs by MTT assay. As to conditions: read-out: GI.
In experiment [5] the test system is Bel-7402. Put plainly: Cytotoxicity against human Bel7402 cells assessed as growth inhibition at 0.1 ug/ml after 24 hrs by MTT assay. The following applies: Bel-7402, 24 h, read-out: GI.
Experiment [6] deals with NCI-H460. Put plainly: Cytotoxicity against human NCI-H460 cells assessed as growth inhibition at 10 ug/ml after 24 hrs by MTT assay. As to conditions: NCI-H460, 24 h, read-out: GI.
Experiment [7] has as its system Bel-7402. The experiment can be described thus: Cytotoxicity against human Bel7402 cells assessed as growth inhibition at 100 ug/ml after 24 hrs by MTT assay. As to conditions: Bel-7402, 24 h, read-out: GI.
For experiment [8], the system named is NCI-H460. The experiment can be described thus: Cytotoxicity against human NCI-H460 cells assessed as growth inhibition at 100 ug/ml after 24 hrs by MTT assay. As to conditions: NCI-H460, 24 h, read-out: GI.
Experiment [9] has as its system KB. The experiment can be described thus: Cytotoxicity against human KB cells assessed as growth inhibition at 100 ug/ml after 24 hrs by MTT assay. As to conditions: read-out: GI.
A short description of experiment [10]: Cytotoxicity against human HO8910 cells assessed as growth inhibition at 10 ug/ml after 24 hrs by MTT assay. As to conditions: HO-8910, 24 h, read-out: GI.
Experiment [11] concerns NCI-H460. Put plainly: Cytotoxicity against human NCI-H460 cells assessed as growth inhibition at 0.1 ug/ml after 24 hrs by MTT assay. The following applies: NCI-H460, 24 h, read-out: GI.
A short description of experiment [12]: Cytotoxicity against human HO8910 cells assessed as growth inhibition at 0.1 ug/ml after 24 hrs by MTT assay. As to conditions: HO-8910, 24 h, read-out: GI.
Experiment [13] deals with Bel-7402. The experiment can be described thus: Cytotoxicity against human Bel7402 cells assessed as growth inhibition at 10 ug/ml after 24 hrs by MTT assay. The following applies: Bel-7402, 24 h, read-out: GI.
The test system of experiment [14] is KB. Put plainly: Cytotoxicity against human KB cells assessed as growth inhibition at 1 ug/ml after 24 hrs by MTT assay. As to conditions: read-out: GI.
Experiment [15] is described as follows: Cytotoxicity against human HO8910 cells assessed as growth inhibition at 100 ug/ml after 24 hrs by MTT assay. As to conditions: HO-8910, 24 h, read-out: GI.
Experiment [16] deals with KB. Put plainly: Cytotoxicity against human KB cells assessed as growth inhibition at 10 ug/ml after 24 hrs by MTT assay. As to conditions: read-out: GI.

In the case of `O=C(CCCCC1CCSS1)Nc1ccccc1Cl` (stereo not drawn), the inhibition of growth at 1 µg/mL came out at 10.1% in experiment [1], 7.74% in [2] and 5.33% in [3]. Further, the inhibition of growth at 0.1 µg/mL was 5.11% in [4], 6.83% in experiment [5], 8% in experiment [11] and 8.17% in experiment [12]. Also, the figures for the inhibition of growth at 10 µg/mL in [6] and in experiment [10] were 14.6% and 4.66%, respectively. For the same compound, the inhibition of growth at 100 µg/mL in experiment [7] turned out to be 4.74%; in experiment [8] it was 3.38%; in experiment [9] it was 0.72%.

With `COc1ccc(NC(=O)CCCCC(S)CCS)cc1` (stereo not drawn), the inhibition of growth at 1 µg/mL in [2] was found to be 1.79%; in [3] it was 3.96%; in [14], 2.49%. The inhibition of growth at 10 µg/mL in experiment [13] was 10.4%; in experiment [6], 1.43%; in experiment [10], 4.14%; in [16], 8.93%. Also, the values for the inhibition of growth at 0.1 µg/mL in experiment [5] and in experiment [11] were 5.35% and 5.69%, respectively. Besides, the inhibition of growth at 100 µg/mL was found to be 22.5% in experiment [7], 23.5% in [8], 22.2% in [9] and 12.6% in [15].

`CC(=O)SCCC(CCCCC(=O)Nc1ccccc1)SC(C)=O` (stereo not drawn): the inhibition of growth at 1 µg/mL in experiment [1] is 13.1%; in [2], 10.6%; in [3], 2.84%; in experiment [14] it was 1.68%. Further, the inhibition of growth at 0.1 µg/mL in experiment [4] stood at 7.24%; in experiment [11] it was 15.4%; in [12], 8.33%. Further, the results for the inhibition of growth at 10 µg/mL in [6], in experiment [10] and in experiment [16] were 14.2%, 3.2% and 2.5%, respectively. For the same compound, the inhibition of growth at 100 µg/mL in [7] was 14.1%; in experiment [8], 44.8%; in [9], 22.9%; in [15], 22.3%.

Regarding `CC(=O)SCCC(CCCCC(=O)O)SC(C)=O` (stereo not drawn), the inhibition of growth at 1 µg/mL in experiment [1] came out at 9.89%; in experiment [3] it was 12.8%; in [14] it was 12.4%. Besides, the inhibition of growth at 10 µg/mL was 9.22% in experiment [13], 6.04% in experiment [6], 1.61% in [10] and 8.88% in [16]. Further, the inhibition of growth at 0.1 µg/mL is 7.24% in experiment [4], 10.3% in experiment [5] and 9.96% in experiment [11]. The inhibition of growth at 100 µg/mL in [7] is 8.35%; in experiment [8] it was 11%; in experiment [9], 8.03%.

Regarding `COc1ccc(NC(=O)CCCCC2CCSS2)cc1` (stereo not drawn), the inhibition of growth at 1 µg/mL in experiment [1] came out at 0.51%; in [2], 3.54%; in [3] it was 7.93%; in experiment [14], 5.03%. The inhibition of growth at 10 µg/mL in experiment [13] came to 6.32%; in experiment [6], 9.82%; in [10], 6.34%; in experiment [16], 2.94%. For the same compound, the inhibition of growth at 0.1 µg/mL in experiment [4] worked out at 4%; in experiment [5], 5.48%; in experiment [11] it was 3.82%; in experiment [12], 1.64%. Besides, the inhibition of growth at 100 µg/mL is 38.7% in experiment [7], 45.7% in [8], 48.3% in [9] and 43.8% in [15].

As for `CC(=O)SCCC(CCCCC(=O)Nc1ccc(Cl)cc1)SC(C)=O` (stereo not drawn), the inhibition of growth at 1 µg/mL worked out at 15.4% in [1], 0.35% in [2], 3.07% in experiment [3] and 14.8% in experiment [14]. Besides, the inhibition of growth at 10 µg/mL turned out to be 5.78% in experiment [13], 14.8% in experiment [6], 1.47% in experiment [10] and 18.1% in experiment [16]. Also, the inhibition of growth at 0.1 µg/mL was determined as 11.4% in experiment [4], 9.96% in experiment [5], 9.89% in experiment [11] and 1.81% in experiment [12]. Besides, the inhibition of growth at 100 µg/mL in experiment [7] came out at 45.5%; in [8], 47.3%; in experiment [9], 72%; in [15] it was 58.8%.

For the compound `O=C(CCCCC(S)CCS)Nc1ccc(F)cc1` (stereo not drawn), the inhibition of growth at 1 µg/mL in experiment [1] was determined as 6.84%; in experiment [2] it was 12.2%; in experiment [14], 8.84%. Further, the inhibition of growth at 10 µg/mL in experiment [13] was 6.14%; in experiment [6], 18.1%; in experiment [10] it was 6.81%; in experiment [16], 13.3%. The inhibition of growth at 0.1 µg/mL in [4] came out at 6.78%; in experiment [11], 5.64%; in experiment [12], 8.11%. Further, the inhibition of growth at 100 µg/mL in experiment [7] worked out at 11.7%; in experiment [8] it was 41.6%; in experiment [9], 28.2%; in experiment [15], 22.2%.

`O=C(CCCCC(S)CCS)Nc1cccc(C(F)(F)F)c1` (stereo not drawn): the inhibition of growth at 1 µg/mL in experiment [1] is 8.26%; in [2] it was 13.7%; in experiment [3] it was 1.66%. Besides, the inhibition of growth at 10 µg/mL in experiment [13] stood at 1.21%; in [6], 11.4%; in experiment [10] it was 8.86%; in experiment [16], 1.97%. The inhibition of growth at 0.1 µg/mL in experiment [4] stood at 8.41%; in [5] it was 2.85%; in [11], 11.9%; in [12], 10.8%. In addition, the inhibition of growth at 100 µg/mL in experiment [7] was 25.3%; in experiment [8], 32.1%; in experiment [9] it was 30.5%; in experiment [15] it was 34.8%.

Take `O=C(CCCCC(S)CCS)NO` (stereo not drawn): the figures for the inhibition of growth at 1 µg/mL in experiment [1], in experiment [3] and in [14] were 1.17%, 9.12% and 10.6%, respectively. Moreover, the inhibition of growth at 10 µg/mL came to 28.2% in [13], 17.7% in experiment [6], 26.2% in experiment [10] and 41.5% in experiment [16]. The inhibition of growth at 0.1 µg/mL in experiment [4] came out at 7.62%; in experiment [5], 5.96%; in experiment [11], 5.7%. In addition, the inhibition of growth at 100 µg/mL in experiment [7] worked out at 47.5%; in [8], 43.7%; in experiment [9], 58%; in experiment [15] it was 49.3%.

`O=C(CCCCC(S)CCS)Nc1ccc([N+](=O)[O-])cc1` (stereo not drawn): the inhibition of growth at 1 µg/mL in [1] is 4.64%; in experiment [2], 0.76%; in experiment [3] it was 1.73%; in experiment [14], 0.93%. In addition, the inhibition of growth at 10 µg/mL was 14.4% in [13], 13.4% in [6], 8.96% in [10] and 13.7% in experiment [16]. For the same compound, the inhibition of growth at 0.1 µg/mL in experiment [5] was 1.88%; in experiment [11], 5.69%. Besides, the inhibition of growth at 100 µg/mL is 33.4% in experiment [7], 39.1% in [8], 41.1% in [9] and 51.2% in [15].

Take `O=C(CCCCC(S)CCS)Nc1ccccc1` (stereo not drawn): the inhibition of growth at 1 µg/mL in [1] came to 4.3%; in experiment [2] it was 6.38%; in experiment [3], 1.32%; in [14], 11.6%. The inhibition of growth at 10 µg/mL came to 3.72% in [13], 8.37% in experiment [6], 5.49% in experiment [10] and 8.62% in experiment [16]. Also, the inhibition of growth at 0.1 µg/mL in experiment [4] amounted to 9.49%; in experiment [5], 0.85%; in experiment [11] it was 5.5%; in [12], 7.37%. Besides, the inhibition of growth at 100 µg/mL in [7] amounted to 7.67%; in [8] it was 25.4%; in experiment [9], 15.8%; in experiment [15] it was 13.7%.

Regarding `O=C(CCCCC(CCSC(=O)c1ccccc1)SC(=O)c1ccccc1)Nc1ccccc1Cl` (stereo not drawn), the inhibition of growth at 1 µg/mL was determined as 14.4% in [1], 2.35% in [2], 7.37% in experiment [3] and 3.05% in [14]. The inhibition of growth at 10 µg/mL was 6.63% in experiment [13], 12.1% in [6], 1.33% in experiment [10] and 2.53% in experiment [16]. Also, the figures for the inhibition of growth at 0.1 µg/mL in experiment [4], in experiment [5] and in [11] were 3.62%, 5.72% and 15.1%, respectively.
